Common to all, as to experiment: NCI anticancer screen, dose series, 48 h
In test [1] the test system is A498 renal.
For test [2], the system named is A549 NSCLC.
Test [3] concerns CAKI-1 renal.
The test system of test [4] is COLO 205 colon.
Test [5] has as its system EKVX NSCLC.
Test [6] relates to HCC-2998 colon.
The test system of test [7] is HCT-116 colon.
Test [8] concerns HCT-15 colon.
The test system of test [9] is HL-60(TB) leukemia.
Test [10] relates to HS 578T breast.
For test [11], the system named is HT29 colon.
The test system of test [12] is K-562 leukemia.
Test [13] relates to LOX IMVI melanoma.
In test [14] the test system is NCI/ADR-RES ovarian.
Test [15] deals with OVCAR-3 ovarian.
Test [16] deals with OVCAR-4 ovarian.
Test [17] relates to SK-MEL-2 melanoma.
The subject of test [18] is SN12C renal.
The subject of test [19] is UO-31 renal.

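Exposure lasted 48 hours, with cells grown in 96-well plates and compounds tested at five concentrations. TGI is the concentration that stops growth completely.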 Where only a bound is given, the exact number is not on record here.

As for `CC1(C)[C@H](C(=O)O)N2C(=O)[C@@H](NS(=O)(=O)c3ccc([N+](=O)[O-])cc3)[C@H]2S1(=O)=O`, the TGI in [1], in [2], in [3], in test [4], in test [5] and in test [6] was more than 100 µM each time. Also, the TGI in test [7] is more than 100 µM; in [8] it was more than 100 µM; in test [9], more than 100 µM; in [10], more than 100 µM; in test [11] it was more than 100000 nM; in test [12], more than 100 µM. In addition, the TGI in [13], in test [14], in test [15], in test [16], in [17] and in [18] was more than 100 µM each time. The TGI in test [19] was more than 100 µM.
`Cc1c(C#N)c2nnn(-c3ccc(Cl)cc3)c(=O)n2c1-c1ccccc1`: the TGI is 3.92 µM in [1]; more than 40.3 µM in test [2]; more than 52.3 µM in test [3]; 0.319 µM in [4]; 31.3 µM in [5]; 0.201 µM in [6]. Further, the TGI in test [7] is 10.9 µM; in [8], 11.9 µM; in test [9] it was more than 57.3 µM; in [10], more than 56.3 µM; in test [11], 490 nM; in [12] it was 20.1 µM. For the same compound, the TGI in [13] is 12.9 µM; in test [14], 16 µM; in test [15] it was 0.772 µM; in test [16], more than 59.3 µM; in [17], 2.99 µM; in test [18], 3.85 µM. This compound also registered a TGI in test [19] of more than 51.3 µM.
As to `COc1cc(-c2cn(S(=O)(=O)c3ccc(C)cc3)c3ccccc23)nc(-c2cn(S(=O)(=O)c3ccc(C)cc3)c3ccccc23)n1`, the TGI in test [1] is more than 100 µM; in test [2], more than 48.8 µM; in test [3], more than 100 µM; in test [4] it was 3.31 µM; in [5] it was more than 100 µM; in test [6], more than 100 µM. Besides, the TGI in test [7] was more than 33.8 µM; in test [8], more than 100 µM; in test [9] it was 5.24 µM; in [10] it was more than 100 µM; in test [11] it was 2000 nM; in test [12], more than 100 µM. The TGI in [13], in [14], in test [15], in [16], in [17] and in test [18] was more than 100 µM in each case. Moreover, the TGI in [19] is more than 75.1 µM.
Take `CO/N=C(\C)c1ccc(Nc2c3ccccc3nc3occc23)cc1`: the TGI in [1] worked out at 9.94 µM; in test [2], 20 µM; in test [3], 7.15 µM; in test [4] it was 6.37 µM; in test [5], 39.9 µM; in test [6], 1.94 µM. In addition, the TGI in test [7] stood at 12.1 µM; in test [8], 13.1 µM; in test [9] it was 2.23 µM; in [10] it was 10.3 µM; in test [11], 2160 nM; in test [12], 37.3 µM. Further, the TGI in test [13] worked out at 18.2 µM; in [14], 4.75 µM; in test [15], 2.85 µM; in test [16] it was 7.58 µM; in [17], 1.94 µM; in test [18], 22.6 µM. In addition, the TGI in test [19] is 25.1 µM.
`Brc1ccc2[nH]cc(-c3csc(-c4ccccn4)n3)c2c1`: the TGI in test [1] is 12.4 µM; in test [2] it was more than 70.3 µM; in test [3], more than 94.9 µM; in [4] it was more than 56.3 µM; in test [5] it was 48.2 µM; in test [6], 31 µM. In addition, the TGI in test [7] was 50.9 µM; in [8], more than 100 µM; in test [9], more than 100 µM; in test [10], more than 100 µM; in test [11], 38700 nM; in [12] it was more than 100 µM. The TGI in test [13] is 33.2 µM; in test [14], more than 100 µM; in test [15], more than 38 µM; in [16] it was more than 92.8 µM; in test [17], more than 100 µM; in test [18], 30.7 µM. In test [19], this compound yielded a TGI of more than 100 µM.
Turning to `NNC(=O)CSc1nc2ccc(I)cc2c(=O)n1Cc1ccccc1`, the TGI was determined as 33.2 µM in [1]; 54.6 µM in test [2]; 40.2 µM in test [3]; 53.2 µM in test [4]; 33.2 µM in [5]; 55.6 µM in test [6]. In addition, the TGI in test [7] was 43.2 µM; in test [8], more than 100 µM; in [9], 61 µM; in [10] it was 52.5 µM; in [11] it was 44800 nM; in [12], 88 µM. The TGI in test [13] is more than 100 µM; in test [14], more than 100 µM; in test [15] it was 54.9 µM; in test [16], 71.2 µM; in [17] it was 46 µM; in test [18], 48.6 µM. The same compound came in with a TGI in [19] of 35.4 µM.
